Assays:
[1] = tested on: Osr1-GFP+ cells from the caudal part of E9.5 embryos; experiment: Culture of sorted E9.5 posterior Osr1-GFP+ cell aggregates, then colony-formation assay on Wnt4 feeder cells; assay type: cell-based, mouse
Description: In vitro colony-formation assays were performed as described previously (Osafune et al., 2006). Briefly, progenitor cells were sorted by a FACS Aria II (Becton Dickinson) and plated onto NIH3T3 cells stably expressing Wnt4 at a low density (1,250-10,000 cells/well of 6-well plates). The cells were then cultured in DMEM/F12 containing 5% knockout serum replacement (Invitrogen), 10 μg/ml insulin, 6.7 μg/1 sodium selenite, 5.5 μg/ml transferrin, 1×10^−7 mol/l dexamethasone, 10 mmol/l nicotinamide, 2 mmol/l L-glutamine, 50 μmol/l 2-mercaptoethanol, 5 mmol/l HEPES and penicillin/streptomycin.
For embryonic tissue cultures at E8.5, the presomitic regions of 6-10 somite-stage embryos were harvested and T-GFP+ cells were sorted by FACS. The sorted cells were aggregated at 7,000 cells per aggregate in 96-well low-cell-binding plates and cultured in serum-free chemically-defined medium. In the embryonic tissue cultures at E9.5, the posterior regions from the 23rd somite region of 22-26 somite-stage embryos were harvested and Osr1-GFP+ or Wt1-GFP+ cells were sorted by FACS. The sorted cells were aggregated at 10,000 cells per aggregate in 96-well low-cell-binding plates and cultured in serum-free chemically-defined medium.
Induced cell aggregates from embryonic tissues or ES cells were dissociated by incubation with 0.25% trypsin for 5 min. After blocking in normal mouse serum (Thermo Scientific), cell surface marker staining was carried out in buffer comprising 1% bovine serum albumin, 1×HBSS and 0.035% NaHCO3. Data were analyzed with FlowJo software (Treestar).
RNA was isolated using an RNeasy Plus Micro Kit (Qiagen), and then reverse-transcribed with random primers and Superscript III (Invitrogen). Quantitative PCR was carried out using a Real-Time PCR System (Applied Biosystems) and Thunderbird SYBR qPCR Mix (Toyobo). All samples were normalized by the β-actin expression using the relative standard curve method.
To test the hypothesis, Osr1-GFP+ cells from the caudal part of E9.5 embryos were sorted, and were plated into low-cell-binding plates in the presence of the Rho kinase inhibitor Y27632, which supports cell survival. The cells spontaneously re-aggregated and formed spheres within 24 h.

Osr1-GFP ES cell line = experiment: Induction of metanephric nephron progenitors from mouse ES cells; assay type: cell-based; details: low concentration, 24 h after 2 days of EB formation
Description: Mouse ES cells (Osr1-GFP) were maintained on murine embryonic fibroblasts in DMEM (Invitrogen) supplemented with 15% fetal calf serum, 0.1 mM 2-mercaptoethanol (Nacalai Tesque) and 1,000 U/ml leukemia inhibitory factor (ESGRO). EB3-DsRed cells, gifts from Dr. Hitoshi Niwa (CDB RIKEN), were maintained as reported previously (Usui et al., Am. J. Pathol. 180, 2417-2426, 2012). Before the initiation of differentiation, the ES cells were passaged once onto feeder cell-free gelatin-coated dishes in DMEM (Invitrogen) supplemented with 15% fetal bovine serum, 0.1 mM 2-mercaptoethanol, 1,000 U/ml leukemia inhibitory factor, 3 μM CHIR99021 (Wako) and 1 μM PD0325901 (Wako). ES cell differentiation was carried out in serum-free medium as follows. […]
RNA was isolated using an RNeasy Plus Micro Kit (Qiagen), and then reverse-transcribed with random primers and Superscript III (Invitrogen). Quantitative PCR was carried out using a Real-Time PCR System (Applied Biosystems) and Thunderbird SYBR qPCR Mix (Toyobo). […]

[2] = exogenous addition to aggregate culture

For Cc1c[nH]c(-c2cnc(NCCNc3ccc(C#N)cn3)nc2-c2ccc(Cl)cc2Cl)n1 [CHIR99021, 6-[[2-[[4-(2,4-dichlorophenyl)-5-(4-methyl-1H-imidazol-2-yl)-2-pyrimidinyl]amino]ethyl]amino]nicotinonitrile], which “induction of colony-forming progenitors and nephric gene expressions” value (“induction” for short) ([1]; high concentrations, 3 or 10 μM) is on record?
Its value is “inhibitory”.

What about the colony formation ([1]; low concentration, 1 μM) of the same molecule?
Its colony formation is “slightly improved”.

For C[C@@H](N)[C@H]1CC[C@H](C(=O)Nc2ccncc2)CC1 [Y27632], which “expressions of Pax2, Six2 and Gdnf compared with the starting point” value ([1]; 48 h of culture of aggregates in low-cell-binding plates) is on record?
Its value is “more than 10 fold”.

What about the “Osr1+/Itga8+/Pdgfra− population (FACS)” value ([1]; cultured aggregates) of the same molecule?
Its value is 10.0±0.01 % of the total cells.

B1: activin: human activin A growth factor (R&D Systems) (protein, UniProt P08476 311-426, looked up)
Inhibin beta A chain: GLECDGKVNICCKKQFFVSFKDIGWNDWIIAPSGYHANYCEGECPSHIAGTSGSSLSFHSTVINHYRMRGHSPFANLKSCCVPTKLRPMSMLYYDDGQNIIKKDIQNMIVEECGCS
modifications: Inhibin beta A chain
How did the “induction” value [1, 2] turn out when B1 was run?
Its value is “inhibitory”.

What about the “expression of the epiblast marker Fgf5” value (Osr1-GFP ES cell line) of the same molecule?
The value was “induced transient expression”.

B2: Bmp4: human Bmp4 growth factor (R&D Systems) (protein, UniProt P12644 293-408, looked up)
Bone morphogenetic protein 4: SPKHHSQRARKKNKNCRRHSLYVDFSDVGWNDWIVAPPGYQAFYCHGDCPFPLADHLNSTNHAIVQTLVNSVNSSIPKACCVPTELSAISMLYLDEYDKVVLKNYQEMVVEGCGCR
With B2 as the molecule, how does the “induction” value [1, 2] read?
Its value is “inhibitory”.

— patent US10072249B2, “Method of inducing kidney from pluripotent stem cells” (NATIONAL UNIVERSITY CORPORATION KUMAMOTO UNIVERSITY, priority 2013, dated 2018)
